The values that follow are results of earlier work, collected in US11351152B2, “Method and composition for treating seizure disorders” (India Globalization Capital, Inc., priority 2016, dated 2022).

The subject of data set [1] is patients. The following applies: 200-300 mg of cannabidiol in combination with regular medication.
The subject of data set [2] is epileptic patients. The note with it: 200-300 mg of cannabidiol per day in combination with standard antiepileptic drugs, 12 epileptic patients.
Data set [3] has as its system single patient. The note with it: 900-1200 mg of cannabidiol a day for 10 months.

`C=C(C)[C@@H]1CCC(C)=C[C@H]1c1c(O)cc(CCCCC)cc1O` [cannabidiol]: in data set [1], the improvement versus placebo entry is “showed improvement over those that received a placebo” and the unwanted side effect result was “Mild sedation”. In data set [2], the seizure frequency result is given as “no significant improvement in seizure frequency”. In data set [3], the frequency of seizures entry is recorded as “markedly reduced the frequency of seizures”.
